Experimental findings from patent publication US20250339391A1, “METHODS FOR EFFECTIVE MANAGEMENT OF PAIN” (South Rampart Pharma, Inc., priority 2024, published 2025) are described below.

“Also recorded” adds a separate entry of the source. Where two headings read alike, the source gives them in different places.

For one series, the system named is NAPQI. The series can be described thus: LC-MS/MS identification of serum NAPQI and novel benzoquinoimine. It is filed as in vivo, mouse. To be noted: CD-1 mice, 600 mg/kg, IP or per os. Here is the method: […] (NAPQI) was extracted from the serum by adding 3 volumes of ethyl-acetate to 1 volume of serum and storing them on ice for 30 min, followed by centrifugation at 3000 g for 30 min. Afterward, the supernatant was transferred into mass spectrometry vials and dried under N2 gas. The serum was then washed with another 3 volumes of ethyl-acetate, and the supernatant was added back to the same mass spectrometry vial, followed by evaporation under a stream of N2 gas. The sample was re-suspended with 50 μl of 1:1 MeOH:H2O for LC-MS/MS experimentation. The mass spectrophotometer was operated in multiple reaction monitoring (MRM) mode using positive ion electrospray. NAPQI was detected by monitoring the m/z transition 150.3→108.1. Pure NAPQI analytical standard (10 ng/mL) obtained from Cayman Chemical (Ann Arbor, MI) was used to characterize the full fragmentation pattern of NAPQI and determine the likely fragments.

The subject of a further series is CD-1 male mice. As to conditions: for mortality by 72 hours: n=10. The method, then: CD-1 male mice obtained from Charles River Laboratories underwent a one-week acclimation period. They were housed under a 12-hour day/night cycle, with unrestricted access to food and water. Before experimentation, mice were fasted for 15 hours. […] Each treatment group consisted of 10 mice. Post-dosing, the mice were monitored at 6-hour intervals over 72 hours for signs of becoming moribund. An investigator blinded to the treatment groups conducted the moribund state assessment.

The subject of a further series is Sprague-Dawley rats. The series can be described thus: CFA inflammatory pain / von Frey with electronic detection (eVF). The format is in vivo, rat. As to conditions: for antinociceptive activity, SRP-001 versus ApAP: 32 and 100 mg/kg, young and aged rats. The method, then: In this model of mechanonociception, one hind paw at a time is stimulated with an electronic von Frey (eVF) filament (noxious source) until the animal retracts the paw from the mechanical stimulus. von Frey tests were conducted in a dedicated room at the LSUHSC New Orleans Neuroscience Center of Excellence vivarium. Rats were acclimated to their environment for 2 days for 30 min/day prior to testing. To obtain eVF pressure recordings, each animal was placed in an individual plastic observation compartment on a perforated metallic grid platform, which provided access to the plantar surface of the hind paws. After acclimation to the environment for 30 min, mechanical hypersensitivity was assessed by stimulating the mid-plantar area of each hind paw with a rigid tip von Frey filament attached to the eVF meter (Ugo Basile 38450) until animals withdrew the paw from the filament. The withdrawal threshold was defined as the average force/pressure (g) required for the rat to withdraw the stimulated paw. A brisk withdrawal of the paw (often followed by a sustained retraction and/or licking) was considered a positive response, but paw withdrawals due to locomotion or weight shifting were not counted. The von Frey studies were conducted with an eVF device that electronically registers the grams of force necessary to elicit paw withdrawal in order to eliminate bias that confounded previous older versions of this test. Baseline withdrawal thresholds of both the right and left paws were recorded, and animals were assigned to different treatment groups so that each group had approximately equal withdrawal threshold averages in both paws. […] Doses at concentrations of 32 mg/kg and 100 mg/kg were tested in a cumulative dose-response manner and given at an interval of 60 min, and paw withdrawal threshold readings were measured using eVF as described above.

Series [1] has as its system CD1 (young male and female) or C57BL/6 (aged male) mice. The series can be described thus: Acetic acid-induced abdominal writhing visceral pain assay. It is filed as in vivo, mouse. To be noted: for analgesia in acetic acid-induced writhing assay: 100 mg/kg, all cohorts; for antinociception in acetic acid writhing: 32 and 100 mg/kg PO, 0.4% acetic acid ip. Here is the method:
In this model of visceral pain, abdominal contraction (writhing) in which contraction of the abdominal muscles and stretching of the hind limbs is induced in mice in response to an ip injection of 0.4% acetic acid at a dose of 10 mL/kg 25 min after drug administration is assessed. Specifically, the number of writhes is counted for 10 min beginning 5 min after acetic acid injection. […] CD1 (young male and female) or C57BL/6 (aged male) mice were used. For the abdominal writhing assays, we used n=35 aged male mice, n=70 young male mice, and n=70 young female mice.

For another series, the system named is male CD1 mice. The series can be described thus: Baker yeast-induced hyperthermia antipyresis assay. The format is in vivo, mouse. To be noted: 15% yeast ip, drug 75 mg/kg per os. Here is the method:
Antipyresis experiments were carried out with n=60 CD-1 male mice weighing between 45-50 g. All mice were kept in a 12-h day/12-h night cycle with free access to food and water ad libitum. After habituating and acclimating the mice for a week, each mouse was briefly anesthetized for 1 min with 1% isoflurane and implanted subcutaneously a transmitter probe that records core body temperature—Implantable Programmable Temperature Transponder (IPTT-300) by Bio Medic Data Systems (BMDS), DE, USA. The mice were allowed to recover for at least one week from the surgery before any recordings were made and observed in their home cages prior to pyrogen challenge for inducing fever. Temperatures were recorded using the BMDS DAS-8027-IUS data reading system.
(15% yeast, […]) (MilliporeSigma, Billerica, MA, USA) was used to induce fever. All animals used in this assay were male CD1 mice, which were fasted overnight (15 h) before the start of the assay. Mice received either yeast in 0.9% saline (sterile) (vehicle) or just 0.9% saline as an ip injection. […] All mice that didn't show a significant change in body temperature or appeared sick post-pyrogen challenge were excluded (n=5) from subsequent drug administrations.
Drug injection/concentration: All drugs and vehicle (10% DMSO: 10% labrasol:80% PEG400) were administered by oral gavage, PO administration. […]

For another series, the system named is male Beagle dogs. As to conditions: dog, in vivo. Here is the method: 6) A Two-day Oral Dose Toxicity and Pharmacokinetic Study of SRP-001 in Beagle Dogs Non-GLP) SRP-001 was supplied by Olon Ricerca Bioscience as an off-white powder and then prepared as dosing suspensions for oral administration via gavage (Calvert Labs/Altasciences, Scott Township, PA USA). Six experimentally non-naïve male Beagle dogs (3/dose), at least 7 months old and weighing 7.2 to 10.2 kg prior to treatment initiation, were administered 100 or 900 mg/kg/d SRP-001. Animals were dosed three times daily (3-5 h between doses) for 2 d. Mortality/morbidity was performed twice daily. On the day of dosing, animals were observed prior to each dose administration and approximately 1-3 h after each dose. Animals were also observed once on day 3. Body weights were recorded for all animals prior to the first dose administration on days 1 and 3, and food consumption was recorded daily. Blood for bioanalytical evaluation was collected at selected timepoints on day 1. Following the completion of the study, surviving animals were not euthanized and were returned to the Calvert colony.

The mark [2] stands for this setting: 992 oral gavage (ApAP 150 mg/kg, SRP-001 402 mg/kg).

Turning to `CC(=O)Nc1ccc(O)cc1` [ApAP, acetaminophen], the “serum NAPQI formation” value with NAPQI is on record as “a NAPQI peak is seen; also recorded: significantly enhanced”. Also, the “mortality by 72 hours” value is reported as “absence of mortality” in the series on CD-1 male mice (setting [2]), 1/10 in the series on CD-1 male mice (1,984 oral gavage (ApAP 300 mg/kg)) and 3/10 with CD-1 male mice (3,969 oral gavage (ApAP 600 mg/kg)). Moreover, the “mortality reached within 72 hours (Kaplan-Meier)” value in the series with CD-1 male mice (highest dose) is 70%. Also, the “antinociceptive activity, SRP-001 versus ApAP” value in the series with Sprague-Dawley rats was “comparable antinociceptive activity; also recorded: comparable analgesic activity”. For the same compound, the “analgesia in acetic acid-induced writhing assay” value in series [1] is reported as “significant analgesia”. Moreover, the “antinociception in acetic acid writhing” value in series [1] is listed as “experienced antinociception”. The “antipyresis, core body temperature” value in the series with male CD1 mice is reported as “subsequent reduction in core body temperature”.

Regarding `CCN(CC)C(=O)c1ccccc1S(=O)(=O)NCC(=O)Nc1ccc(O)cc1` [SRP-001, N,N-diethyl-2-[[2-(4-hydroxyanilino)-2-oxo-ethyl]sulfamoyl]benzamide], the “serum NAPQI formation” value with NAPQI is reported as “lack of formation of the toxic quinonimine metabolite NAPQI; also recorded: lack of production of NAPQI”. The “mortality by 72 hours” value in the series with CD-1 male mice (setting [2]) was “absence of mortality”. The “antinociceptive activity, SRP-001 versus ApAP” value in the series with Sprague-Dawley rats is recorded as “comparable antinociceptive activity; also recorded: more efficacious than ApAP; also recorded: comparable analgesic activity”. Moreover, the “equimolar (μmol/kg) ED50 / dose-response curve relative to ApAP” value is “shifted curves to the left; also recorded: comparable or improved ED50; also recorded: clear shift to the left” with Sprague-Dawley rats (von Frey, non-linear regression) and “comparable or improved ED50; also recorded: shifted to the left; also recorded: clear shift to the left” in series [1] (acetic acid writhing). In series [1], the “analgesia in acetic acid-induced writhing assay” value was “significant analgesia”. For the same compound, in series [1], the “antinociception in acetic acid writhing” value is on record as “experienced antinociception”. The “antipyresis, core body temperature” value in the series on male CD1 mice is “subsequent reduction in core body temperature”. Further, in the series on male Beagle dogs, the emesis result is reported as “Nearly all animals had emesis”. Further, the “amplification in peak plasma concentration” value in the series on male Beagle dogs (male, Beagle) is recorded as 3-4 fold. For the same compound, the tolerated dose in the series with male Beagle dogs (male, Beagle, 2 d) is 900 mg/kg/day.
